How the values were obtained:
[1] = tested on: Aerobes; experiment: Antimicrobial Effectiveness Testing (USP 24) of preserved cosmetic formulations, count of aerobes; format: cell-based; settings: for Aerobes, Initial: 0 hours
From the text: (§1) Procedure to Evaluate the Efficacv of the Preservative System
(§2) This assay consists on the contamination of the formulations to be protected with a mixed inoculum of 10^8 cfu/ml concentration, in each of the micro-organisms, and see the variation of the viable cells in time. This mixed inoculum is composed of the following micro-organisms:
(§3) The cosmetic composition which is the subject of the investigation is divided into containers with 50 g of product for each flask. Each container is inoculated with 0.5 ml of the inoculum (10^8 cfu/ml). The target concentration is 10^6 cfu/mL, approximately. All the containers are kept at a temperature between 20-25° C. and are protected against light.
(§4) The level of the microbial contamination is determined at 0 hours and after 7 days, 14 days and 28 days. The number of colonies is determined by dilution in buffer peptone with the appropriate neutraliser agent of the preservative. The culture media used for counting the micro-organisms were: Soya triptone agar (35-37° C., 48 hours) for the determination of bacteria; and Sabouraud agar with chloramphenicol for fungi and yeast (25° C., 3-5 days).
(§5) According to Antimicrobial Effectiveness Testing USP 24th Edition, 1999 (pp. 1809-1811), an antimicrobial preservative is considered to be effective in topically used products made with aqueous bases or vehicles, non-sterile nasal products and emulsions, including those applied to mucous membranes, if: • not less than 2,0 logarithm reduction from the initial calculated bacteria's count at 14 days is reached and no increase from the 14 days' count is detected after 28 days; and • no increase from the initial calculated count of yeast and moulds is observed.

[2] = tested on: Yeast; experiment: Antimicrobial Effectiveness Testing (USP 24) of preserved cosmetic formulations, count of yeast; format: cell-based, Candida albicans ATCC 10231; settings: for Yeast, Initial: 0 hours
From the text: as §1, §2, §3, §4, §5

[3] = tested on: Fungi; experiment: Antimicrobial Effectiveness Testing (USP 24) of preserved cosmetic formulations, count of fungi; format: cell-based, Aspergillus niger ATCC 16404; settings: for Fungi, Initial: 0 hours
From the text: as §1, §2, §3, §4, §5

[4] = Example 1, oil in water emulsion with non-ionic surfactant
[5] = Example 2, oil in water emulsion with ionic emulsifier
[6] = Example 3, water in oil emulsion with non-ionic emulsifier

Structure (SMILES) | Aerobes, Initial [1, 4] | Aerobes, 7 days [1, 4] | Aerobes, 14 days [1, 4] | Aerobes, Initial [1, 5] | Aerobes, 7 days [1, 5] | Aerobes, 14 days [1, 5] | Aerobes, Initial [1, 6] | Aerobes, 7 days [1, 6] | Aerobes, 14 days [1, 6] | Yeast, Initial [2, 4] | Yeast, 7 days [2, 4] | Yeast, 14 days [2, 4] | Yeast, Initial [2, 5] | Yeast, 7 days [2, 5] | Yeast, 14 days [2, 5] | Yeast, Initial [2, 6] | Yeast, 7 days [2, 6] | Yeast, 14 days [2, 6] | Fungi, Initial [3, 4] | Fungi, 7 days [3, 4] | further results
CCCCCCCCCCCC(=O)NC(CCCNC(=N)N)C(=O)OCC.Cl (stereo not drawn) [compound 1] | 1.1 · 10^6 | 3.1 · 10^3 | 3.3 · 10^2 | 2.7 · 10^6 | 1.6 · 10^4 | 6.5 · 10^2 | 6.2 · 10^6 | 1.8 · 10^3 | <9.9 · 10^1 | 5.6 · 10^4 | 9.5 · 10^2 | 4.0 · 10^2 | 3.6 · 10^4 | 1.0 · 10^2 | 1.0 · 10^2 | 7.0 · 10^4 | <9.9 · 10^1 | <9.9 · 10^1 | 1.7 · 10^5 | 8.9 · 10^2 | Fungi, 14 days [3, 4]: <9.9 · 10^1; Fungi, Initial [3, 5]: 1.4 · 10^5; Fungi, 7 days [3, 5]: 7.2 · 10^3; Fungi, 14 days [3, 5]: 2.8 · 10^2; Fungi, Initial [3, 6]: 1.0 · 10^5; Fungi, 7 days [3, 6]: <9.9 · 10^1; Fungi, 14 days [3, 6]: <9.9 · 10^1
O=[N+]([O-])C(Br)(CO)CO [compound 2] | 1.2 · 10^6 | 2.1 · 10^3 | 7.9 · 10^2 | 4.5 · 10^6 | 2.1 · 10^4 | 3.8 · 10^3 | 3.3 · 10^6 | 5.7 · 10^3 | 2.8 · 10^3 | 3.4 · 10^4 | 1.7 · 10^2 | <9.9 · 10^1 | 2.9 · 10^4 | 8.9 · 10^2 | 4.0 · 10^2 | 5.9 · 10^4 | 8.9 · 10^2 | 4.0 · 10^2 | 1.5 · 10^5 | 1.2 · 10^3 | Fungi, 14 days [3, 4]: <9.9 · 10^1; Fungi, Initial [3, 5]: 1.5 · 10^5; Fungi, 7 days [3, 5]: 8.5 · 10^3; Fungi, 14 days [3, 5]: 1.1 · 10^2; Fungi, Initial [3, 6]: 3.5 · 10^4; Fungi, 7 days [3, 6]: 8.5 · 10^3; Fungi, 14 days [3, 6]: <9.9 · 10^1
CC1(C)C(=O)N(CO)C(=O)N1CO [compound 4] | 1.5 · 10^6 | 4.7 · 10^3 | 8.5 · 10^2 | 5.2 · 10^6 | 4.7 · 10^3 | 8.7 · 10^2 | 5.6 · 10^6 | 4.7 · 10^3 | 4.3 · 10^2 | 5.6 · 10^4 | 3.1 · 10^2 | <9.9 · 10^1 | 1.8 · 10^4 | 2.8 · 10^2 | <9.9 · 10^1 | 4.8 · 10^4 | 2.8 · 10^2 | <9.9 · 10^1 | 1.6 · 10^5 | 3.2 · 10^3 | Fungi, 14 days [3, 4]: <9.9 · 10^1; Fungi, Initial [3, 5]: 1.4 · 10^5; Fungi, 7 days [3, 5]: 6.2 · 10^3; Fungi, 14 days [3, 5]: 2.7 · 10^2; Fungi, Initial [3, 6]: 6.4 · 10^4; Fungi, 7 days [3, 6]: 6.2 · 10^3; Fungi, 14 days [3, 6]: <9.9 · 10^1
OCCOc1ccccc1 [compound 5] | 2.3 · 10^6 | 1.8 · 10^3 | 6.2 · 10^2 | 2.7 · 10^6 | 1.8 · 10^4 | 1.8 · 10^3 | 4.8 · 10^6 | 3.9 · 10^3 | 1.9 · 10^3 | 3.4 · 10^4 | 1.6 · 10^2 | <9.9 · 10^1 | 2.3 · 10^4 | 5.3 · 10^2 | <9.9 · 10^1 | 5.3 · 10^4 | 5.3 · 10^2 | <9.9 · 10^1 | 1.7 · 10^5 | 1.3 · 10^3 | Fungi, 14 days [3, 4]: <9.9 · 10^1; Fungi, Initial [3, 5]: 1.2 · 10^5; Fungi, 7 days [3, 5]: 5.5 · 10^3; Fungi, 14 days [3, 5]: 3.4 · 10^2; Fungi, Initial [3, 6]: 4.2 · 10^4; Fungi, 7 days [3, 6]: 5.5 · 10^3; Fungi, 14 days [3, 6]: <9.9 · 10^1
ClC=CC[N+]12CN3CN(CN(C3)C1)C2.[Cl-] [compound 8] | 4.8 · 10^6 | 7.2 · 10^3 | 5.3 · 10^2 | 4.6 · 10^6 | 7.2 · 10^3 | 9.8 · 10^2 | 4.2 · 10^6 | 2.7 · 10^3 | 9.4 · 10^2 | 3.4 · 10^4 | 1.6 · 10^2 | <9.9 · 10^1 | 1.9 · 10^4 | 5.9 · 10^2 | <9.9 · 10^1 | 5.9 · 10^4 | 5.9 · 10^2 | <9.9 · 10^1 | 1.8 · 10^5 | 1.3 · 10^3 | Fungi, 14 days [3, 4]: <9.9 · 10^1; Fungi, Initial [3, 5]: 1.8 · 10^5; Fungi, 7 days [3, 5]: 5.3 · 10^3; Fungi, 14 days [3, 5]: <9.9 · 10^1; Fungi, Initial [3, 6]: 3.8 · 10^4; Fungi, 7 days [3, 6]: 1.3 · 10^3; Fungi, 14 days [3, 6]: <9.9 · 10^1
